# Measurements from ChEMBL document CHEMBL5724914, “Linking interpersonal differences in gut microbiota composition and drug biotransformation activity” (2024).
# Conditions: human gut metagenome, 24 h, 2 µM
# Further: call rule not given here.
row,Bacterial Biotransformation,SMILES
1,Compound NOT metabolized,CC12CC3CC(C)(C1)CC(N)(C3)C2 [MEMANTINE]
2,Compound metabolized,Cc1cc(C)cc(OCC2CNC(=O)O2)c1 (stereo not given) [METAXALONE]

# Conditions: human gut metagenome, 24 h, 2 µM
# Remark: another data set of the same source
row,Bacterial Biotransformation,SMILES
1,Compound NOT metabolized,CC12CC3CC(C)(C1)CC(N)(C3)C2 [MEMANTINE]
2,Compound metabolized,Cc1cc(C)cc(OCC2CNC(=O)O2)c1 (stereo not given) [METAXALONE]

# Conditions: human gut metagenome, 24 h, 2 µM
# Remark: another data set of the same source
row,Bacterial Biotransformation,SMILES
1,Compound NOT metabolized,CC12CC3CC(C)(C1)CC(N)(C3)C2 [MEMANTINE]
2,Compound metabolized,Cc1cc(C)cc(OCC2CNC(=O)O2)c1 (stereo not given) [METAXALONE]

# Test: (§1) The drug is tested on Z-003 corresponding to pig gut metagenome with ENA study accession number: PRJEB37062 and ENA sample accession number: ERS12561803 for biotransformation under anaerobic condition. The drug concentrations were measured over 9 timepoints collected between 0 and 24 hours of incubation by liquid-chromatography-coupled mass spectrometry (LC–MS)
# Conditions: 2 µM
row,Bacterial Biotransformation,SMILES
1,Compound NOT metabolized,CC12CC3CC(C)(C1)CC(N)(C3)C2 [MEMANTINE]
2,Compound NOT metabolized,Cc1cc(C)cc(OCC2CNC(=O)O2)c1 (stereo not given) [METAXALONE]

# Conditions: human gut metagenome, 24 h, 2 µM
# Remark: another data set of the same source
row,Bacterial Biotransformation,SMILES
1,Compound NOT metabolized,CC12CC3CC(C)(C1)CC(N)(C3)C2 [MEMANTINE]
2,Compound metabolized,Cc1cc(C)cc(OCC2CNC(=O)O2)c1 (stereo not given) [METAXALONE]

# Conditions: human gut metagenome, 24 h, 2 µM
# Remark: another data set of the same source
row,Bacterial Biotransformation,SMILES
1,Compound NOT metabolized,CC12CC3CC(C)(C1)CC(N)(C3)C2 [MEMANTINE]
2,Compound metabolized,Cc1cc(C)cc(OCC2CNC(=O)O2)c1 (stereo not given) [METAXALONE]

# Conditions: human gut metagenome, 24 h, 2 µM
# Remark: another data set of the same source
row,Bacterial Biotransformation,SMILES
1,Compound NOT metabolized,CC12CC3CC(C)(C1)CC(N)(C3)C2 [MEMANTINE]
2,Compound metabolized,Cc1cc(C)cc(OCC2CNC(=O)O2)c1 (stereo not given) [METAXALONE]

# Conditions: human gut metagenome, 24 h, 2 µM
# Remark: another data set of the same source
row,Bacterial Biotransformation,SMILES
1,Compound NOT metabolized,CC12CC3CC(C)(C1)CC(N)(C3)C2 [MEMANTINE]
2,Compound metabolized,Cc1cc(C)cc(OCC2CNC(=O)O2)c1 (stereo not given) [METAXALONE]

# Test: as §1, with “Z-030” for “Z-003”, “mouse” for “pig”, “ERS12561829” for “ERS12561803”
# Conditions: 2 µM
row,Bacterial Biotransformation,SMILES
1,Compound NOT metabolized,CC12CC3CC(C)(C1)CC(N)(C3)C2 [MEMANTINE]
2,Compound NOT metabolized,Cc1cc(C)cc(OCC2CNC(=O)O2)c1 (stereo not given) [METAXALONE]

# Test: as §1, with “WLS-077” for “Z-003”, “human” for “pig”, “ERS12561750” for “ERS12561803”
# Conditions: 2 µM
row,Bacterial Biotransformation,SMILES
1,Compound NOT metabolized,CC12CC3CC(C)(C1)CC(N)(C3)C2 [MEMANTINE]
2,Compound metabolized,Cc1cc(C)cc(OCC2CNC(=O)O2)c1 (stereo not given) [METAXALONE]

# Test: as §1, with “Z-020” for “Z-003”, “rabbit” for “pig”, “ERS12561819” for “ERS12561803”
# Conditions: 2 µM
row,Bacterial Biotransformation,SMILES
1,Compound NOT metabolized,CC12CC3CC(C)(C1)CC(N)(C3)C2 [MEMANTINE]
2,Compound NOT metabolized,Cc1cc(C)cc(OCC2CNC(=O)O2)c1 (stereo not given) [METAXALONE]

# Test: as §1, with “Z-008” for “Z-003”, “to” for “to pig gut”, “ERS12561808” for “ERS12561803”
# Conditions: 2 µM
row,Bacterial Biotransformation,SMILES
1,Compound NOT metabolized,CC12CC3CC(C)(C1)CC(N)(C3)C2 [MEMANTINE]
2,Compound NOT metabolized,Cc1cc(C)cc(OCC2CNC(=O)O2)c1 (stereo not given) [METAXALONE]

# Test: as §1, with “Z-026” for “Z-003”, “to” for “to pig gut”, “ERS12561825” for “ERS12561803”
# Conditions: 2 µM
row,Bacterial Biotransformation,SMILES
1,Compound NOT metabolized,CC12CC3CC(C)(C1)CC(N)(C3)C2 [MEMANTINE]
2,Compound metabolized,Cc1cc(C)cc(OCC2CNC(=O)O2)c1 (stereo not given) [METAXALONE]

# Conditions: human gut metagenome, 24 h, 2 µM
# Remark: another data set of the same source
row,Bacterial Biotransformation,SMILES
1,Compound metabolized,CC12CC3CC(C)(C1)CC(N)(C3)C2 [MEMANTINE]
2,Compound metabolized,Cc1cc(C)cc(OCC2CNC(=O)O2)c1 (stereo not given) [METAXALONE]

# Conditions: human gut metagenome, 24 h, 2 µM
# Remark: another data set of the same source
row,Bacterial Biotransformation,SMILES
1,Compound NOT metabolized,CC12CC3CC(C)(C1)CC(N)(C3)C2 [MEMANTINE]
2,Compound metabolized,Cc1cc(C)cc(OCC2CNC(=O)O2)c1 (stereo not given) [METAXALONE]

# Test: as §1, with “WLS-220” for “Z-003”, “human” for “pig”, “ERS12561769” for “ERS12561803”
# Conditions: 2 µM
row,Bacterial Biotransformation,SMILES
1,Compound NOT metabolized,CC12CC3CC(C)(C1)CC(N)(C3)C2 [MEMANTINE]
2,Compound metabolized,Cc1cc(C)cc(OCC2CNC(=O)O2)c1 (stereo not given) [METAXALONE]

# Conditions: human gut metagenome, 24 h, 2 µM
# Remark: another data set of the same source
row,Bacterial Biotransformation,SMILES
1,Compound NOT metabolized,CC12CC3CC(C)(C1)CC(N)(C3)C2 [MEMANTINE]
2,Compound metabolized,Cc1cc(C)cc(OCC2CNC(=O)O2)c1 (stereo not given) [METAXALONE]

# Conditions: human gut metagenome, 24 h, 2 µM
# Remark: another data set of the same source
row,Bacterial Biotransformation,SMILES
1,Compound NOT metabolized,CC12CC3CC(C)(C1)CC(N)(C3)C2 [MEMANTINE]
2,Compound metabolized,Cc1cc(C)cc(OCC2CNC(=O)O2)c1 (stereo not given) [METAXALONE]

# Test: as §1, with “WLS-007” for “Z-003”, “human” for “pig”, “ERS12561742” for “ERS12561803”
# Conditions: 2 µM
row,Bacterial Biotransformation,SMILES
1,Compound NOT metabolized,CC12CC3CC(C)(C1)CC(N)(C3)C2 [MEMANTINE]
2,Compound metabolized,Cc1cc(C)cc(OCC2CNC(=O)O2)c1 (stereo not given) [METAXALONE]

# Test: as §1, with “WLS-310” for “Z-003”, “human” for “pig”, “ERS12561785” for “ERS12561803”
# Conditions: 2 µM
row,Bacterial Biotransformation,SMILES
1,Compound NOT metabolized,CC12CC3CC(C)(C1)CC(N)(C3)C2 [MEMANTINE]
2,Compound metabolized,Cc1cc(C)cc(OCC2CNC(=O)O2)c1 (stereo not given) [METAXALONE]
